According to patent US8178534B2, “cMET inhibitors” (Takeda Pharmaceutical Company Limited, priority 2008, dated 2012):

Columns and labels:
[1] = molecular target: T1, cMET enzyme (amino acids 1023-1360) (Homo sapiens, UniProt P08581); assay: Determination of inhibition of cMET (capillary electrophoresis, phosphorylated peptide product); format: biochemical; conditions: 1.2 nM cMET, 50 μM ATP, 2 μM FL-2 peptide, 2 hours room temperature
T1 construct: The cMET enzyme (amino acids 1023-1360) nominally at 24 μM was held at −80° C. until use; His tag (N, cleaved yes); made in house; host or cells: Sf9 cells
Experimental: The inhibitory property of a compound relative to cMET catalysis was determined by use of capillary electrophoresis with fluorescence quantification of a phosphorylated peptide product for cMET. The cMET enzyme (amino acids 1023-1360) nominally at 24 μM was held at −80° C. until use, in a buffer containing 25 mM Tris-HCl pH 8.5, 150 mM NaCl, 3 mM DTT and 10% glycerol. […] Following purification, the tag was removed and enzyme concentrated. […] To activate the enzyme fully, frozen cMET was thawed quickly and activated with the addition of assay buffer (50 mM HEPES pH 7.5, 10 mM NaCl, 10 mM MgCl2, 0.01% Brij® 35), 1.25 mM ATP, 5 mM MgCl2 and 5 mM DTT at a cMET concentration of 2.4 μM followed by a 30 minute incubation at room temperature. […] Next, cMET enzyme (1.2 nM final) was added and the system incubated at room temperature for 20 minutes. Catalysis was initiated by the addition of ATP (50 μM final). Assays were incubated at room temperature for 2 hours then quenched by the addition of EDTA. Phosphorylated peptide product was quantified by monitoring fluorescence during capillary electrophoresis with Caliper LifeSciences LabChip 3000 under the following settings: base pressure=−0.1 psi, screen pressure=−1.2 psi, downstream voltage=−500 V, upstream voltage=−2300 V, chip type=TC372. The elution buffer was identical to the assay buffer except for the absence of DTT, FL-2 and ATP and the addition of 0.1% coating reagent (Caliper). […] Peak height was quantified and used to determine enzyme velocities.
IC50 values were calculated by non-linear least squares curve fitting of the standard IC50 equation to background-corrected cMET velocity versus compound concentration.

MKN45 = assay: Inhibition of cell viability (MTS), MKN45; format: cell-based; conditions: Homo sapiens, 96 hours incubation
Experimental: (§1) Cells were maintained at 37° C. in a humidified atmosphere containing 5%-8% CO2 following the instructions of the supplier (American Type Culture Collection (Rockville, Md.)). Inhibition of cell viability was determined for a panel of tumor cell lines (MKN45, EBC1 and A549), using the soluble tetrazolium salt, MTS (Promega, Madison, Wis.). Cells were seeded at 2,000-7,500 cells/well in 96-well tissue culture plates and were allowed to attach for approximately 24 hours prior to addition of compounds or DMSO vehicle. […] Cells were treated in duplicate with test compounds. Compounds were serially diluted (1:2.5) from column 1 to 11 and column 12 contained DMSO vehicle. Compounds were diluted into cell growth medium then compound solution was added to cells. Equal amounts of DMSO were added to cells (final concentration is 0.5%). After background correction and normalization against DMSO-treated cells, EC50 values were calculated using non-linear curve-fitting of the cell viability as a function of compound concentration. The MKN45 and EBC1 cell lines contain high levels of phospho-Met and are dependent on cMET for proliferation, whereas the A549 line is used as negative control.
(§2) EC50 values may be calculated by non-linear curve fitting of the compound concentrations and fluorescence intensities to the standard EC50 equation.

EBC1 = assay: Inhibition of cell viability (MTS), EBC1; format: cell-based; conditions: Homo sapiens, 96 hours incubation
Experimental: as §1, §2

A549 = assay: Inhibition of cell viability (MTS), A549 (negative control line); format: cell-based; conditions: Homo sapiens, A549 cells (negative control), 96 hours incubation
Experimental: as §1, §2

T1 sequence (P08581 1023-1360): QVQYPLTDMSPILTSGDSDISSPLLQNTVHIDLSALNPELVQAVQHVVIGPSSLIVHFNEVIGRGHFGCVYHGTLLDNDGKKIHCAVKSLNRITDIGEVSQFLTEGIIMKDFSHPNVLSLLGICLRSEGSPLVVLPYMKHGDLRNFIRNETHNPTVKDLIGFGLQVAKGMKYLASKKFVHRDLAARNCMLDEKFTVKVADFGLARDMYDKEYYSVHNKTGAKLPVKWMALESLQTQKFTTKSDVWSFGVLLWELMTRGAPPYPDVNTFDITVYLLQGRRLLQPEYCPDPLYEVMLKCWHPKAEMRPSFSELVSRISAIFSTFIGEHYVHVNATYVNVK

| SMILES | IC50 [1] | EC50 (MKN45; MKN-45, MKN45 cells) | EC50 (EBC1; EBC-1, EBC1 cells) | EC50 (A549) | EC50 (MKN45; MKN-45, 96 h, MKN45 cells) | EC50 (EBC1; EBC-1, 96 h, EBC1 cells) | EC50 (A549; A549, 96 h) |
| --- | --- | --- | --- | --- | --- | --- | --- |
| N#Cc1ccc2nnc(Sc3ccc4nc(NC(=O)C5CC5)cn4n3)n2c1 [Compound 6, N-(6-(6-cyano-[1,2,4]triazolo[4,3-a]pyridin-3-ylthio)imidazo[1,2-b]pyridazin-2-yl)cyclopropanecarboxamide] | > 100 nM | > 630 nM | > 200 nM | > 50000 nM |  |  |  |
| O=C(Nc1cn2nc(Sc3nnc4ccc(Cl)cn34)ccc2n1)C1CC1 [Compound 9, N-(6-(6-chloro-[1,2,4]triazolo[4,3-a]pyridin-3-ylthio)imidazo[1,2-b]pyridazin-2-yl)cyclopropanecarboxamide] | 60 to 100 nM |  |  |  | 250 to 630 nM | 100 to 199 nM | 8000 to 25000 nM |
| Cc1ccc2nnn(Cc3ccc4nc(NC(=O)C5CC5)cn4n3)c2c1 [Compound 12, N-(6-((6-methyl-1H-benzo[d][1,2,3]triazol-1-yl)methyl)imidazo[1,2-b]pyridazin-2-yl)cyclopropanecarboxamide] | > 100 nM |  |  |  | > 630 nM | > 200 nM | > 50000 nM |
| O=C(Nc1cn2nc(Cn3nnc4ccc(-c5cccc(F)c5)cc43)ccc2n1)C1CC1 [Compound 14] | 30 to 59 nM |  |  |  | 250 to 630 nM | 100 to 199 nM | 600 to 1600 nM |
| O=C(Nc1cn2nc(Cn3nnc4ccc(-c5ccccc5)cc43)ccc2n1)C1CC1 [Compound 15] | 60 to 100 nM |  |  |  | 250 to 630 nM | 100 to 199 nM | 8000 to 25000 nM |
| O=C(Nc1cn2nc(Cn3nnc4ccc(-c5cccnc5)cc43)ccc2n1)C1CC1 [Compound 16] | > 100 nM |  |  |  | > 630 nM | > 200 nM | > 50000 nM |
| CS(=O)(=O)c1ccc(-c2ccc3nnn(Cc4ccc5nc(NC(=O)C6CC6)cn5n4)c3c2)cc1 [Compound 17] | 60 to 100 nM |  |  |  | < 100 nM | < 35 nM | > 19500 nM |
| CCS(=O)(=O)c1cccc(-c2ccc3nnn(Cc4ccc5nc(NC(=O)C6CC6)cn5n4)c3c2)c1 [Compound 18] | 30 to 59 nM |  |  |  | 100 to 249 nM | 100 to 199 nM | > 19500 nM |
| COc1cncc(-c2ccc3nnn(Cc4ccc5nc(NC(=O)C6CC6)cn5n4)c3c2)c1 [Compound 19] | 60 to 100 nM |  |  |  | 250 to 630 nM | 100 to 199 nM | > 19500 nM |
| Cc1n[nH]c(C)c1-c1ccc2nnn(Cc3ccc4nc(NC(=O)C5CC5)cn4n3)c2c1 [Compound 20] | 60 to 100 nM |  |  |  | 250 to 630 nM | > 200 nM | > 50000 nM |
| CS(=O)(=O)c1cncc(-c2ccc3nnn(Cc4ccc5nc(NC(=O)C6CC6)cn5n4)c3c2)c1 [Compound 21] | > 100 nM |  |  |  | > 630 nM | > 200 nM | > 50000 nM |
| O=C(Nc1cn2nc(Cn3nnc4ccc(-c5cnn(C[C@H](O)CO)c5)cc43)ccc2n1)C1CC1 [Compound 22] | 60 to 100 nM |  |  |  | > 630 nM | > 200 nM | > 50000 nM |
